Laboratory results from patent US7723537B2, “Skin lightening agents, compositions and methods” (Unilever Home & Personal Care USA, Division of Conopco, Inc., priority 2004, dated 2010).

Tests used:
[1] = system: B16 mouse melanoma cells; test: Cell based assay: melanin synthesis in B16 mouse melanoma cells; conditions: 6.25 micromolar, 72 hours, absorbency of medium at 530 nm, read-out: % of Control (Melanin Synthesis)
Description: This experiment was carried out using a cell based assay.
B16 mouse melanoma cells were utilized in the following experiment to evaluate the efficacy of skin lightening agents. B16 cells were plated in 96-well microtiter plates at a density of 5000 cells per well and cultured overnight in Dulbecco's Modified Eagle's Medium (phenol red free) containing 10% fetal bovine serum and 1% penicillin/streptomycin at 37° C. in the presence of 5% CO2. After 24 hours, the medium was replaced with fresh growth medium containing the treatments. All cultures were incubated for 72 hours at which time melanin was visible in the control treatment. The melanin-containing medium was transferred to a clean 96-well plate and quantified by reading the absorbency at 530-nm. Cell viability was assessed by measurement of lactate dehydrogenase levels to ensure the decrease in melanin was not a result of cellular toxicity.

[2] = system: mushroom tyrosinase; test: Mushroom tyrosinase assay; format: biochemical; conditions: for Tyrosinase activity (% of ethanol control): slope of 475-nm absorbency vs ethanol control, L-DOPA substrate; for effectiveness in skin lightening as measured by the mushroom tyrosinase assay (in words): compared with 4-ethyl resorcinol
Description: Mushroom tyrosinase inhibition is indicative of reduction in melanin synthesis, thereby showing skin lightening effect.
Into each well of a 96-well plate, 150 microliters of phosphate buffer (100 mM, pH 7.0), 10 microliters of L-DOPA (L-3,4-Dihydroxyphenylalanine, 10 mM), and 20 microliters of skin lightening agent (dissolved in ethanol, which is the control) were added. Following an initial measurement of background absorbency at 475-nm, 20 microliters of mushroom tyrosinase (Sigma T-7755; 6050 units/ml) was added and incubated at room temperature.
Absorbency was read at 475-nm over the following time points: 0, 2, 4, and 6.5 minutes. The data is plotted as 475-nm absorbency vs. time (minutes) and the slope of the line is calculated (ΔAbs 475 nm/min). Values are expressed as the percentage of the respective untreated ethanol control reaction.

| SMILES | activity at 6.25 µM [1] | Tyrosinase activity (% of ethanol control) ([2]; 1 micro-M) | Tyrosinase activity (% of ethanol control) ([2]; 1.56 micro-M) | Tyrosinase activity (% of ethanol control) ([2]; 12.5 micro-M) | Tyrosinase activity (% of ethanol control) ([2]; 100 micro-M) | effectiveness in skin lightening as measured by the mushroom tyrosinase assay (in words) [2] | Tyrosinase activity (% of ethanol control) ([2]; 0.1 micro-M) | Tyrosinase activity (% of ethanol control) ([2]; 10 micro-M) |
| --- | --- | --- | --- | --- | --- | --- | --- | --- |
| CC(CC(=O)O)c1ccc(O)cc1O (stereo not drawn) [II, 3-(2,4-dihydroxyphenyl)-butyric acid] | 32.8% | 73.3% | 41.6% | 28.0% | 20.6% | substantially as effective as 4-ethyl resorcinol |  |  |
| COC(=O)CC(C)c1ccc(O)cc1O (stereo not drawn) [D1, Methyl 3-(2,4-dihydroxyphenyl)-butyrate] | 36.4% | 73.1% | 39.3% | 35.8% | 41.0% | substantially as effective as 4-ethyl resorcinol |  |  |
| CC1CC(=O)Oc2cc(O)ccc21 (stereo not drawn) [B1, 7-hydroxy-3,4-dihydro-4-methylcoumarin] | 75.8% | 94.2% | 90.4% | 70.4% | 75.3% | not effective in skin lightening |  |  |
| O=c1ccc2ccc(O)cc2o1 [7-Hydroxy Coumarin, reference compound] |  | 100% |  |  | 117% |  | 104% | 108% |
| CCc1ccc(O)cc1O [4-Ethyl Resorcinol, reference compound] | 34% | 46.3% |  |  | 20.7% |  | 72.7% | 30.8% |
